Reference: BindingDB's records for PubMed 35239336 (Pharmaron Beijing Co., Ltd., 2022)
pIC50: −log10 of the molar value.

Experiment: Inhibition of MK-499 binding to hERG

| SMILES | pIC50 |
| --- | --- |
| O=C(Nc1ccc(F)cc1)C1(c2ccc(-c3ccc(C4CC4)nc3)cc2)COC1 | 4.87 |
| O=C(Nc1ccc(F)cc1)C1(c2ccc(-c3cnc(C(F)(F)F)cc3CO)cc2)CC(F)(F)C1 | 5.21 |
| CC(C)(O)c1cc(C(F)(F)F)ncc1-c1ccc(C2(C(=O)Nc3ccc(F)cc3)COC2)cc1 | 4.67 |
| Cc1cc(C2CC2)ncc1-c1ccc(C2(C(=O)Nc3ccc(F)cc3)COC2)cc1 | 4.80 |
| Cc1cc(C(F)(F)F)ncc1-c1ccc(C2(C(=O)Nc3ccc(F)cc3)COC2)cc1 | 5.65 |
